Measured values reported in ChEMBL document CHEMBL1121436, “2,4-Diamino-5-benzylpyrimidines as antibacterial agents. 4. 6-Substituted trimethoprim derivatives from phenolic Mannich intermediates. Application to the synthesis of trimethoprim and 3,5-dialkylbenzyl analogues” (J Med Chem, 1980).
Converted amounts (≈) assume the structure as drawn.

Legend:
Dihydrofolate reductase = target: T1, Dihydrofolate reductase (Rattus norvegicus, UniProt Q920D2); assay: Inhibition against dihydrofolate reductase enzyme of rat liver; conditions: read-out: I50
T1 sequence (Q920D2 whole entry): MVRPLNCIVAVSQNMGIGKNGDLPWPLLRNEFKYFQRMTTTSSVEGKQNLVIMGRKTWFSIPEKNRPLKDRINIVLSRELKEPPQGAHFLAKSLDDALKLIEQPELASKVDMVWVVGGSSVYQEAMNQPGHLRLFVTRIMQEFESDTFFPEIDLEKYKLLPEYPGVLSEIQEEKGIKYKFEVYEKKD

[1] = target: T2, Bifunctional dihydrofolate reductase-thymidylate synthase (Plasmodium berghei str. ANKA, UniProt Q27713); assay: Compound was tested for its inhibition against dihydrofolate reductase enzyme of Plasmodium berghei; conditions: read-out: I50
[2] = target: T2, Bifunctional dihydrofolate reductase-thymidylate synthase; assay: Tested for the inhibition of Plasmodium berghei dihydrofolate reductase enzyme; conditions: read-out: I50
Salmonella = assay: Tested for antibacterial activity against Salmonella typhi CN512; format: functional, salmonella typhosa
Escherichia coli = assay: Tested for antibacterial activity against Escherichia coli CN314; format: functional
Streptococcus pyogenes = assay: Tested for antibacterial activity against Streptococcus pyogenes CN10; format: functional
Shigella dysenteriae = assay: Tested for antibacterial activity against Shigella dysentariae CN1513; format: functional
Staphylococcus aureus [3] = assay: Tested for antibacterial activity against Staphylococcus aureus CN491
Proteus vulgaris = assay: Tested for antibacterial activity against Proteus vulgaris CN329; format: functional
Staphylococcus aureus [4] = assay: Tested for antibacterial activity against Staphylococcus aureus CN491; format: functional

T2 sequence (Q27713 whole entry): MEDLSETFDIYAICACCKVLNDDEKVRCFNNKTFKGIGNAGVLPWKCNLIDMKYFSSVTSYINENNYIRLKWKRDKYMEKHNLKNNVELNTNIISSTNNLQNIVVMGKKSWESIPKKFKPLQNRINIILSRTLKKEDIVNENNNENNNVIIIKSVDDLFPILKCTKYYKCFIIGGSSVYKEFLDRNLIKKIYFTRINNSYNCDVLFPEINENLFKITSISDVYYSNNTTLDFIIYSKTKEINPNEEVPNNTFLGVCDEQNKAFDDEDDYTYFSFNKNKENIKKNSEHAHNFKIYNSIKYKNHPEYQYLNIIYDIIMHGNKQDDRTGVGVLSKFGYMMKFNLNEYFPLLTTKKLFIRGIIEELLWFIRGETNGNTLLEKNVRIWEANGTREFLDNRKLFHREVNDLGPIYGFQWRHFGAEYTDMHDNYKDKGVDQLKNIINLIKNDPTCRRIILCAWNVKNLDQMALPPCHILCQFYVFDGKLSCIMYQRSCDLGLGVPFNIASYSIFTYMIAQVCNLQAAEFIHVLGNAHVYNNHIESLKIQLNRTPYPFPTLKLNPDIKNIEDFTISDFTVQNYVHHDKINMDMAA

Row | Compound | IC50 (Dihydrofolate reductase) | MIC (Salmonella) | MIC (Escherichia coli) | MIC (Streptococcus pyogenes) | MIC (Shigella dysenteriae) | MIC (Proteus vulgaris) | other results
1 | COc1cc(Cc2c(N)nc(N)nc2-c2ccccc2)cc(OC)c1O | > 45 µM |  |  |  |  |  | 
2 | CCCc1nc(N)nc(N)c1Cc1cc(OC)c(O)c(OC)c1 |  |  |  |  |  |  | IC50 [1]: 1.5 µM
3 | COc1cc(Cc2c(C)nc(N)nc2N)cc(OC)c1O |  |  |  |  |  |  | IC50 [1]: 0.48 µM
4 | COc1cc(Cc2c(N)nc(N)nc2N)cc(OC)c1OC | > 900 µM |  |  |  |  |  | 
5 | COc1cc(Cc2c(N)nc(N)nc2SC)cc(OC)c1OC |  |  |  |  |  |  | IC50 [2]: 20 µM
6 | COc1cc(Cc2c(C)nc(N)nc2N)cc(OC)c1OC | > 400 µM |  |  |  |  |  | IC50 [1]: 0.34 µM
7 | COc1c(C(C)(C)C)cc(Cc2c(N)nc(N)nc2SC)cc1C(C)(C)C |  | > 500 µg/mL | > 500 µg/mL | > 500 µg/mL | > 500 µg/mL | > 500 µg/mL | MIC (Staphylococcus aureus [3]): > 500 µg/mL
8 | COc1cc(Cc2c(N)nc(N)nc2-c2ccccc2)cc(OC)c1OC | > 400 µM | 250 µg/mL (≈ 682 µM) | 250 µg/mL (≈ 682 µM) | 16 µg/mL (≈ 43.7 µM) | 125 µg/mL (≈ 341 µM) | > 500 µg/mL | MIC (Staphylococcus aureus [3]): 62 µg/mL (≈ 169 µM)
9 | CCCc1nc(N)nc(N)c1Cc1cc(OC)c(OC)c(OC)c1 | 1500 µM |  |  |  |  |  | 
10 | COc1cc(Cc2c(N)nc(N)nc2Oc2ccccc2)cc(OC)c1OC |  | > 500 µg/mL | > 500 µg/mL | > 500 µg/mL | > 500 µg/mL | > 500 µg/mL | MIC (Staphylococcus aureus [3]): > 500 µg/mL
11 | COc1cc(Cc2c(N)nc(N)nc2OC)cc(OC)c1OC | > 100 µM | > 500 µg/mL | > 500 µg/mL | 8 µg/mL (≈ 25 µM) | > 500 µg/mL | > 500 µg/mL | MIC (Staphylococcus aureus [4]): 125 µg/mL (≈ 390 µM)
